Test results published in PMC4139342, “Pharmacokinetics-Pharmacodynamics Analysis of Bicyclic 4-Nitroimidazole Analogs in a Murine Model of Tuberculosis” (PLoS ONE, 2014).

System: H37Rv::F420-mutants, F420 deficient (FbiC mutant)
Type: cell-based, M. tuberculosis

## O=[N+]([O-])c1cn2c(n1)OC[C@@H](NCc1ccc(OC(F)(F)F)cc1)C2 [Amino-824, ((s)-2-nitro-6,7-dihydro-5H-imidazo[2,1-b][1,3]oxazin-6-yl)-(4-trifluoromethoxybenzyl)amine]
  H37Rv::F420-mutants MIC99: >10 mg/L

## O=[N+]([O-])c1cn2c(n1)OC[C@@H](NCCc1ccc(OC(F)(F)F)cc1)C2 [AminoEthyl-824]
  H37Rv::F420-mutants MIC99: >10 mg/L

## O=[N+]([O-])c1cn2c(n1)OC[C@@H](NCc1ccc(OC(F)(F)F)c(Cl)c1)C2 [NI-135]
  H37Rv::F420-mutants MIC99: >10 mg/L

## O=[N+]([O-])c1cn2c(n1)OC[C@@H](NCc1ccc(OC(F)(F)F)c(F)c1)C2 [NI-136]
  H37Rv::F420-mutants MIC99: >10 mg/L

## CC[C@@H]1Oc2nc([N+](=O)[O-])cn2C[C@@H]1OCc1ccc(OC(F)(F)F)cc1 [NI-145]
  H37Rv::F420-mutants MIC99: >10 mg/L

## O=[N+]([O-])c1cn2c(n1)OC[C@@H](NCc1ccc(OC(F)(F)F)c(O)c1)C2 [NI-147]
  H37Rv::F420-mutants MIC99: >10 mg/L

## CC[C@@H]1Oc2nc([N+](=O)[O-])cn2C[C@@H]1NCc1ccc(OC(F)(F)F)c(F)c1 [NI-176]
  H37Rv::F420-mutants MIC99: >10 mg/L

## CC[C@H]1Oc2nc([N+](=O)[O-])cn2C[C@@H]1NCc1ccc(OC(F)(F)F)cc1 [NI-182]
  H37Rv::F420-mutants MIC99: >10 mg/L

## CC[C@@H]1Oc2nc([N+](=O)[O-])cn2C[C@@H]1NCc1ccc(OC(F)(F)F)cc1 [NI-269]
  H37Rv::F420-mutants MIC99: >10 mg/L

## CC[C@H]1Oc2nc([N+](=O)[O-])cn2C[C@@H]1NCc1ccc(-c2ccc(OC(F)(F)F)cc2)cc1 [NI-297]
  H37Rv::F420-mutants MIC99: >10 mg/L

## O=[N+]([O-])c1cn2c(n1)OC1(CC1)C(OCc1ccc(OC(F)(F)F)cc1)C2 (centres unmarked) [NI-302]
  H37Rv::F420-mutants MIC99: >10 mg/L

## O=C(CO[C@@H]1COc2nc([N+](=O)[O-])cn2C1)N1CCN(c2ccc(OC(F)(F)F)cc2)CC1 [NI-622]
  H37Rv::F420-mutants MIC99: >10 mg/L

## O=C(CO[C@@H]1COc2nc([N+](=O)[O-])cn2C1)N1CCN(c2ccc(C(F)(F)F)cn2)CC1 [NI-644]
  H37Rv::F420-mutants MIC99: >10 mg/L

## O=[N+]([O-])c1cn2c(n1)OC[C@@H](OCc1ccc(OC(F)(F)F)cc1)C2 [PA-824, (6S)-2-nitro-6-{[4-(trifluoromethoxy)benzyl]oxy}-6,7-dihydro-5H-imidazo[2,1-b][1, 3]oxazine, reference compound]
  H37Rv::F420-mutants MIC99: >10 mg/L
